Where two headings read alike, the source gives them in different places. *1 amine or outer side, *2 acyl side, *3 side chain or, on linkers, in order; H or OH if unused. Where a SMILES comes first, the peptide text is derived from it. Side-chain parts run from the residue outwards. [ ]: non-standard residue; d: D form. The star is where a group is joined. αMePhe(2-F) = C[C@](N)(Cc1ccccc1F)C(=O)O; γGlu = O=C(O)[C@H](CCC(=O)[*:2])N[*:1]; C14 diacid = O=C(O)CCCCCCCCCCCCC(=O)*; αMeY = C[C@](N)(Cc1ccc(O)cc1)C(=O)O; αMeF = C[C@](N)(Cc1ccccc1)C(=O)O; 4Pal = N[C@@H](Cc1ccncc1)C(=O)O; αMeL = CC(C)C[C@](C)(N)C(=O)O; Lauroyl = CCCCCCCCCCCC(=O)*; Orn = NCCC[C@H](N)C(=O)O; AEEA = NCCOCCOCC(=O)O; Aib = CC(C)(N)C(=O)O
Key:
Format in all cases: cell-based
hGIPR = target: T1, hGIPR (Homo sapiens, UniProt P48546); assay: Functional cAMP formation (HTRF) in HEK-293 clonal cells expressing hGIPR, 0.1% bovine casein, without or with 1.0% human serum albumin; conditions: for Emax: read-out: hGIPR Emax, % ± SEM; for EC50: geometric mean, read-out: hGIPR EC50, nM (SEM, n)
T1 construct: expressed in transfected cells
T1 sequence (P48546 22-466): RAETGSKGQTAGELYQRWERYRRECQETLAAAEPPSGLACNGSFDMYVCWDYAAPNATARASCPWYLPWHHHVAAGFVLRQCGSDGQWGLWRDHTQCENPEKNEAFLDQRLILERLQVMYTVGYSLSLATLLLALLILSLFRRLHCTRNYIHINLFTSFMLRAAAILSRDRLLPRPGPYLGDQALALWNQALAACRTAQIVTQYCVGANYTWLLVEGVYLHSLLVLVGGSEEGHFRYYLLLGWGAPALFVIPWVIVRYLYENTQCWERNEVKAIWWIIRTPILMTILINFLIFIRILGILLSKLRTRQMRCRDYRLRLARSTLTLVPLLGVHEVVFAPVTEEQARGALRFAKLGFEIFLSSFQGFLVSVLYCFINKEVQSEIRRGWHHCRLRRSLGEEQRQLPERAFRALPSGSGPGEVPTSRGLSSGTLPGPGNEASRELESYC
Method in brief: (§1)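 Readings of the HTRF 665/620 nm ratio, which falls as cAMP rises, were converted to nM cAMP using a standard curve after 30 min peptide exposure at 37° C.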

hGCGR = target: T2, hGCGR (Homo sapiens, UniProt P47871); assay: Functional cAMP formation (HTRF) in HEK-293 clonal cells expressing hGCGR, 0.1% bovine casein, without or with 1.0% human serum albumin; conditions: read-out: hGCGR EC50, nM (SEM, n)
T2 construct: expressed in transfected cells
T2 sequence (P47871 26-477): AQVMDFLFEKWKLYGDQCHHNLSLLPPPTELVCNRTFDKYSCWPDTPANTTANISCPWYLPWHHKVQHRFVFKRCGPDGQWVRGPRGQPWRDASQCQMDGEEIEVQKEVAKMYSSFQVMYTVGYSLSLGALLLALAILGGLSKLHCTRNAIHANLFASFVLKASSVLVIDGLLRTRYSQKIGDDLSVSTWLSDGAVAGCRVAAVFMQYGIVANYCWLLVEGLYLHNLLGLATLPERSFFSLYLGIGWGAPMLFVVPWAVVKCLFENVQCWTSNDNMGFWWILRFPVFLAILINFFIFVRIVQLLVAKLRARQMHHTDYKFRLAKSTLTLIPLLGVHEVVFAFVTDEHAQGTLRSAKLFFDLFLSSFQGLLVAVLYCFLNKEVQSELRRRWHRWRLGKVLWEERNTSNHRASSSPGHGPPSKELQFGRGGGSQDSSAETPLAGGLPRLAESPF
Method in brief: as §1

hGLP-1R = hGLP-1R (Homo sapiens, UniProt P43220); assay: Functional cAMP formation (HTRF) in HEK-293 clonal cells expressing hGLP-1R, 0.1% bovine casein, without or with 1.0% human serum albumin; parameters: expressed in transfected cells; conditions: for Emax: read-out: hGLP-1R Emax, % ± SEM; for EC50: read-out: hGLP-1R EC50, nM (SEM, n)
Sequence of hGLP-1R (P43220 24-463): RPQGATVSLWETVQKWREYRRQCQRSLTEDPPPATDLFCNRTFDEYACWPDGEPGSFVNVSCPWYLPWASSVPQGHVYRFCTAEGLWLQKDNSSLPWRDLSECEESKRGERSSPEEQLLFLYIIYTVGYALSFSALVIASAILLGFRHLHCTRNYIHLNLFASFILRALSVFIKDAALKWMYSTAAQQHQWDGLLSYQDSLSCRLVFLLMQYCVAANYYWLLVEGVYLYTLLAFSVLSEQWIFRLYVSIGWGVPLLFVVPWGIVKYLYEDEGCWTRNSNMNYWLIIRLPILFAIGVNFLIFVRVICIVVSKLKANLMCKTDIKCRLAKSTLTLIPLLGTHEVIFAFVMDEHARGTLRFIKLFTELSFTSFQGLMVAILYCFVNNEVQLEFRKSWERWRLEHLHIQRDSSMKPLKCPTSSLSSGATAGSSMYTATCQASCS
Method in brief: as §1

[1] = HEK293, cAMP, 37° C., 0.1% bovine casein, percent of maximal response to GIP(1-42)NH2, arithmetic mean
[2] = cAMP, 37° C., 0.1% bovine casein (no human serum albumin)
[3] = cAMP, 37° C., 0.1% bovine casein (no human serum albumin), geometric mean
[4] = cAMP, 37° C., 0.1% bovine casein and 1.0% human serum albumin, geometric mean (SEM, n)
[5] = HEK293, cAMP, 37° C., 0.1% bovine casein, percent of maximal response to GLP-1(7-36)NH2, arithmetic mean
[6] = HEK293, 0.1% bovine casein and 1.0% human serum albumin, 37° C., percent of maximal response to GIP(1-42)NH2
[7] = 0.1% bovine casein and 1.0% human serum albumin, 37° C., geometric mean
[8] = HEK293, 0.1% bovine casein and 1.0% human serum albumin, 37° C., percent of maximal response to GLP-1(7-36)NH2
[9] = cAMP, incubated at 37° C., 0.1% bovine casein (no human serum albumin), geometric mean

Row | SMILES | Emax (hGIPR; HEK293, cAMP, 37° C., 0.1% bovine casein and 1.0% human serum albumin, percent of maximal response to GIP(1-42)NH2) | Emax (hGIPR; [1]) | EC50 (hGIPR; [2]) | EC50 (hGCGR; [3]) | EC50 (hGCGR; [4]) | Emax (hGLP-1R; HEK293, cAMP, 37° C., 0.1% bovine casein and 1.0% human serum albumin, percent of maximal response to GLP-1(7-36)NH2) | Emax (hGLP-1R; [5]) | EC50 (hGLP-1R; [3]) | EC50 (hGLP-1R; [4]) | Emax (hGIPR; [6]) | EC50 (hGCGR; [7]) | EC50 (hGLP-1R; [7]) | Emax (hGLP-1R; [8]) | EC50 (hGIPR; 0.1% bovine casein and 1.0% human serum albumin, 37° C.) | Emax (hGIPR; HEK293, percent of maximal response to GIP(1-42)NH2, 37° C., 0.1% bovine casein, arithmetic mean) | EC50 (hGIPR; cAMP, incubated at 37° C., 0.1% bovine casein (no human serum albumin)) | EC50 (hGCGR; [9]) | Emax (hGLP-1R; HEK293, percent of maximal response to GLP-1(7-36)NH2, 37° C., 0.1% bovine casein, arithmetic mean) | EC50 (hGLP-1R; [9])
1 | CCCCCCCCCCCC(=O)N[C@@H](CCC(=O)NCCOCCOCC(=O)NCCOCCOCC(=O)NCCOCCOCC(=O)NCCCC[C@H](NC(=O)[C@H](CCCN)NC(=O)[C@H](CC(=O)O)NC(=O)[C@H](CC(C)C)NC(=O)[C@](C)(CC(C)C)NC(=O)[C@@H](NC(=O)C(C)(C)NC(=O)[C@H](Cc1ccncc1)NC(=O)[C@H](CC(=O)O)NC(=O)[C@H](CO)NC(=O)[C@@H](NC(=O)[C@](C)(Cc1ccccc1F)NC(=O)[C@@H](NC(=O)CNC(=O)[C@H](CCC(=O)O)NC(=O)C(C)(C)NC(=O)[C@@H](N)Cc1ccc(O)cc1)[C@@H](C)O)[C@@H](C)O)[C@@H](C)CC)C(=O)N[C@@H](C)C(=O)N[C@@H](CCC(N)=O)C(=O)NC(C)(C)C(=O)N[C@@H](CCC(=O)O)C(=O)N[C@@](C)(Cc1ccccc1)C(=O)N[C@H](C(=O)N[C@H](CCC(=O)O)C(=O)N[C@@](C)(Cc1ccc(O)cc1)C(=O)N[C@@H](CC(C)C)C(=O)N[C@H](C(=O)N[C@@H](CCCCNC(=O)COCCOCCNC(=O)COCCOCCNC(=O)COCCOCCNC(=O)CC[C@H](NC(=O)CCCCCCCCCCC)C(=O)O)C(=O)NCC(=O)NCC(=O)N1CCC[C@H]1C(=O)N[C@@H](CO)C(=O)N[C@@H](CO)C(=O)NCC(=O)N[C@@H](C)C(=O)N1CCC[C@H]1C(=O)N1CCC[C@H]1C(=O)N1CCC[C@H]1C(=O)N[C@@H](CO)C(N)=O)[C@@H](C)CC)[C@@H](C)CC)C(=O)O [Example 438] (H-Y[Aib]EGT[αMePhe(2-F)]TSD[4Pal][Aib]I[αMeL]LD[Orn]K([AEEA-AEEA-AEEA-γGlu-Lauroyl])AQ[Aib]E[αMeF]I[dE][αMeY]LIK([AEEA-AEEA-AEEA-γGlu-Lauroyl])GGPSSGAPPPS-NH2) | 90.8% | 98.9% | 0.0157 nM | > 9950 nM | > 9950 nM | 88.7% | 88.5% | 0.471 nM | 28 nM |  |  |  |  |  |  |  |  |  | 
2 | CC[C@H](C)[C@H](NC(=O)[C@H](CC(C)C)NC(=O)[C@](C)(Cc1ccc(O)cc1)NC(=O)[C@@H](CCC(=O)O)NC(=O)[C@@H](NC(=O)[C@H](Cc1ccccc1)NC(=O)[C@H](CCC(=O)O)NC(=O)C(C)(C)NC(=O)[C@H](CCC(N)=O)NC(=O)[C@H](C)NC(=O)[C@H](CCCCNC(=O)COCCOCCNC(=O)COCCOCCNC(=O)CCCCCCCCCCCCC(=O)O)NC(=O)[C@H](CCCN)NC(=O)[C@H](CC(=O)O)NC(=O)[C@H](CC(C)C)NC(=O)[C@](C)(CC(C)C)NC(=O)[C@@H](NC(=O)[C@H](CO)NC(=O)[C@H](Cc1ccc(OC)cc1)NC(=O)[C@H](CC(=O)O)NC(=O)[C@H](CO)NC(=O)[C@@H](NC(=O)[C@](C)(Cc1ccccc1F)NC(=O)[C@@H](NC(=O)CNC(=O)[C@H](CCC(=O)O)NC(=O)C(C)(C)NC(=O)[C@@H](N)Cc1ccc(O)cc1)[C@@H](C)O)[C@@H](C)O)[C@@H](C)CC)[C@@H](C)CC)C(=O)N[C@@H](CCCCNC(=O)COCCOCCNC(=O)COCCOCCNC(=O)CCCCCCCCCCCCC(=O)O)C(=O)NCC(=O)NCC(=O)N1CCC[C@H]1C(=O)N[C@@H](CO)C(=O)N[C@@H](CO)C(=O)NCC(=O)N[C@@H](C)C(=O)N1CCC[C@H]1C(=O)N1CCC[C@H]1C(=O)N1CCC[C@H]1C(=O)N[C@@H](CO)C(N)=O [Example 266] (H-Y[Aib]EGT[αMePhe(2-F)]TSDY(Me)SI[αMeL]LD[Orn]K([AEEA-AEEA-C14 diacid])AQ[Aib]EFI[dE][αMeY]LIK([AEEA-AEEA-C14 diacid])GGPSSGAPPPS-NH2) |  | 93.2% | 0.0136 nM | > 9950 nM |  |  | 90.5% |  |  | 82.7% | > 9950 nM | 5.83 nM | 97.6% |  |  |  |  |  | 
3 | CC[C@H](C)[C@H](NC(=O)[C@H](CC(C)C)NC(=O)[C@](C)(Cc1ccc(O)cc1)NC(=O)[C@H](CCCCNC(=O)COCCOCCNC(=O)COCCOCCNC(=O)CC[C@H](NC(=O)CCCCCCCCCCCCC(=O)O)C(=O)O)NC(=O)[C@@H](NC(=O)[C@H](Cc1ccccc1)NC(=O)[C@H](CCC(=O)O)NC(=O)C(C)(C)NC(=O)[C@H](CCC(N)=O)NC(=O)[C@H](C)NC(=O)[C@H](CCCCNC(=O)COCCOCCNC(=O)COCCOCCNC(=O)CC[C@H](NC(=O)CCCCCCCCCCCCC(=O)O)C(=O)O)NC(=O)[C@H](CCCN)NC(=O)[C@H](CC(=O)O)NC(=O)[C@H](CC(C)C)NC(=O)[C@](C)(CC(C)C)NC(=O)[C@@H](NC(=O)[C@H](CO)NC(=O)[C@H](Cc1ccncc1)NC(=O)[C@H](CC(=O)O)NC(=O)[C@H](CO)NC(=O)[C@@H](NC(=O)[C@](C)(Cc1ccccc1F)NC(=O)[C@@H](NC(=O)CNC(=O)[C@H](CCC(=O)O)NC(=O)C(C)(C)NC(=O)[C@@H](N)Cc1ccc(O)cc1)[C@@H](C)O)[C@@H](C)O)[C@@H](C)CC)[C@@H](C)CC)C(=O)N[C@@H](CCC(=O)O)C(=O)NCC(=O)N[C@@H](CCCN)C(N)=O [Example 190] (H-Y[Aib]EGT[αMePhe(2-F)]TSD[4Pal]SI[αMeL]LD[Orn]K([AEEA-AEEA-γGlu-C14 diacid])AQ[Aib]EFIK([AEEA-AEEA-γGlu-C14 diacid])[αMeY]LIEG[Orn]-NH2; N-terminus assumed) |  |  |  |  |  |  |  |  |  | 82.8 ± 3.36% | > 9950 nM | 28.9 nM | 112 ± 8.5% | 1.55 nM | 94.5 ± 0.611% | 0.024 nM | > 9950 nM | 98.9 ± 4.64% | 0.303 nM
